The source of these data is PubChem BioAssay AID256 (DTP/NCI, 2004).

Where “and” joins values, the source holds several entries; their conditions need not be identical. Identical values can stand only once. Inconclusive results and toxic doses are left out.

This assay has as its system CD2F1 mice, L1210 leukemia ip, survival T/C. In words: NCI In Vivo Anticancer Drug Screen. Data for tumor model L1210 Leukemia (intraperitoneal) in CD2F1 (CDF1) mice. Particulars: higher = longer survival. Put shortly:
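Compound-dosed mice with transplantable tumor versus matched vehicle controls; endpoint ratio T/C reported.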

Where [1] appears, read: endpoint: mean survival time, dose: 100.0 mg/kg/injection, schedule: Q01DX001 (ip), vehicle: saline.
Setting [2] is: endpoint: mean survival time, dose: 200.0 mg/kg/injection, schedule: Q01DX001 (ip), vehicle: saline.
Where [3] appears, read: endpoint: mean survival time, dose: 100.0 mg/kg/injection, schedule: Q01DX001 (ip), vehicle: saline with Tween-80.
Setting [4] is: endpoint: mean survival time, dose: 200.0 mg/kg/injection, schedule: Q01DX001 (ip), vehicle: saline with Tween-80.
Where [5] appears, read: endpoint: mean survival time, dose: 400.0 mg/kg/injection, schedule: Q01DX001 (ip), vehicle: saline with Tween-80.

Regarding `ON(C(=Nc1ccccc1)c1ccccc1Cl)c1ccccc1`, the T/C reads like this: (endpoint: mean survival time, dose: 6.25 mg/kg/injection, schedule: Q01DX009 (ip), vehicle: saline with Tween-80) 106 % of control; (endpoint: mean survival time, dose: 6.25 mg/kg/injection, schedule: Q04DX003 (ip), vehicle: saline with Tween-80) 102 % of control; (endpoint: mean survival time, dose: 12.5 mg/kg/injection, schedule: Q01DX009 (ip), vehicle: saline with Tween-80) 101 % of control; (endpoint: mean survival time, dose: 12.5 mg/kg/injection, schedule: Q04DX003 (ip), vehicle: saline with Tween-80) 104 % of control; (endpoint: mean survival time, dose: 25.0 mg/kg/injection, schedule: Q04DX003 (ip), vehicle: saline with Tween-80) 102 % of control; under setting [1], 102 % of control. Besides, the T/C under setting [2] was 102 % of control.
For `Nc1nc(N)c2c(n1)NCN(CCc1ccccc1Cl)C2`, the T/C (endpoint: mean survival time, dose: 0.75 mg/kg/injection, schedule: Q01DX009 (ip), vehicle: distilled water + Tween-80) is 93 % of control; the T/C (endpoint: mean survival time, dose: 1.5 mg/kg/injection, schedule: Q01DX009 (ip), vehicle: distilled water + Tween-80) was 98 % of control; the T/C (endpoint: mean survival time, dose: 3.0 mg/kg/injection, schedule: Q01DX009 (ip), vehicle: distilled water + Tween-80) was 94 % of control; the T/C (endpoint: mean survival time, dose: 6.0 mg/kg/injection, schedule: Q01DX009 (ip), vehicle: distilled water + Tween-80) was 100 % of control; the T/C (endpoint: mean survival time, dose: 12.0 mg/kg/injection, schedule: Q01DX009 (ip), vehicle: distilled water + Tween-80) was 94 % of control; the T/C (endpoint: mean survival time, dose: 24.0 mg/kg/injection, schedule: Q01DX009 (ip), vehicle: distilled water + Tween-80) was 102 % of control. For the same compound, the T/C runs as follows: (endpoint: mean survival time, dose: 48.0 mg/kg/injection, schedule: Q01DX009 (ip), vehicle: distilled water + Tween-80) 96 % of control; (endpoint: mean survival time, dose: 80.0 mg/kg/injection, schedule: Q01DX009 (ip), vehicle: distilled water + Tween-80) 96 % of control.
Take `CCC1CCCC[N-]1.CCC1CCCC[N-]1.[Cl][Pt+2][Cl]` (configuration not stated): the T/C (endpoint: mean survival time, dose: 18.8 mg/kg/injection, schedule: Q04DX003 (ip), vehicle: saline with Tween-80) is 106 % of control; the T/C (endpoint: mean survival time, dose: 37.5 mg/kg/injection, schedule: Q04DX003 (ip), vehicle: saline with Tween-80) is 100 % of control; the T/C (endpoint: mean survival time, dose: 75.0 mg/kg/injection, schedule: Q04DX003 (ip), vehicle: saline with Tween-80) is 91 % of control; the T/C (endpoint: mean survival time, dose: 150.0 mg/kg/injection, schedule: Q04DX003 (ip), vehicle: saline with Tween-80) was 91 % of control; the T/C (endpoint: mean survival time, dose: 300.0 mg/kg/injection, schedule: Q04DX003 (ip), vehicle: saline with Tween-80) was 88 % of control.
In the case of `COC1C(N)C(OC2C(Oc3cccc4c(O)c5c(=O)oc6ccc(C)c7c(=O)oc(c34)c5c67)OC(C)C(O)C2(C)O)OC(C)C1O` (configuration not stated), the T/C was 151 % of control (endpoint: median survival time, dose: 1.25 mg/kg/injection, schedule: Q01DX005 (ip), vehicle: other); 177 % of control (endpoint: median survival time, dose: 3.0 mg/kg/injection, schedule: Q01DX005 (ip), vehicle: other); 164 % of control and 177 % of control (endpoint: median survival time, dose: 5.0 mg/kg/injection, schedule: Q01DX005 (ip), vehicle: other).
In the case of `Cc1cc2cc3c(=O)[nH]c(=O)nc-3n(CC(O)C(O)C(O)CO)c2cc1C` (configuration not stated), the T/C under setting [1] was 103 % of control; the T/C under setting [2] was 107 % of control; the T/C (endpoint: mean survival time, dose: 400.0 mg/kg/injection, schedule: Q01DX001 (ip), vehicle: saline) was 98 % of control.
With `CC(C)CCC(C)C1CCC2C3CC([N+](=O)[O-])=C4CC(OC(=O)c5ccccc5)CCC4(C)C3CCC12C` (configuration not stated), the T/C is, setting by setting: (endpoint: mean survival time, dose: 100.0 mg/kg/injection, schedule: Q04DX003 (ip), vehicle: saline with Tween-80) 102 % of control; (endpoint: mean survival time, dose: 200.0 mg/kg/injection, schedule: Q04DX003 (ip), vehicle: saline with Tween-80) 92 % of control; (endpoint: mean survival time, dose: 400.0 mg/kg/injection, schedule: Q04DX003 (ip), vehicle: saline with Tween-80) 92 % of control.
For the compound `OCC(O)C(O)C(O)C(SCc1ccccc1)SCc1ccccc1` (configuration not stated), the T/C is 97 % of control under setting [3], 93 % of control under setting [4] and 89 % of control under setting [5].
`O=S(=O)(CC(Br)C(Br)CO)c1ccccc1` (configuration not stated): the T/C reads like this: (endpoint: median survival time, dose: 25.0 mg/kg/injection, schedule: Q04DX003 (ip), vehicle: saline with Tween-80) 111 % of control; (endpoint: median survival time, dose: 50.0 mg/kg/injection, schedule: Q04DX003 (ip), vehicle: saline with Tween-80) 122 % of control; (endpoint: median survival time, dose: 100.0 mg/kg/injection, schedule: Q04DX003 (ip), vehicle: saline with Tween-80) 111 % of control; (endpoint: median survival time, dose: 200.0 mg/kg/injection, schedule: Q04DX003 (ip), vehicle: saline with Tween-80) 100 % of control.
Take `CCOc1ccc(NC(=O)OCC(C)C)cc1`: the T/C is 97 % of control under setting [3], 101 % of control under setting [4] and 89 % of control under setting [5].
Consider `O=C(COc1ccc(Cl)c(Cl)c1)Nc1cccc(S(=O)(=O)F)c1`, for which the T/C by setting is: under setting [3], 95 % of control; under setting [4], 95 % of control; under setting [5], 91 % of control.
